Results as given in the supplement of paper PMC9386025.

Experiments:
Test in all cases: drug sensitivity score (DSS) (DSS (dimensionless)); higher = more sensitive (stronger drug response)
FIMM-PDC1 = patient-derived ovarian cancer cells; conditions: genetic perturbation: none (patient-derived cell culture)
Procedure, shortened: (§1)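 Ovarian cancer cell lines, after at least three days of shRNA induction with 100 ng/ml doxycycline, and patient-derived cultures were plated at 1 000 – 1 500 cells per well into 384-well plates pre-loaded with drugs at five concentrations spanning a 10,000-fold range. Plates were then kept for three days at 37 °C and 5.0 % CO2. Viability was measured as CellTiter-Glo luminescence on a PHERAstar FS, and each drug's dose-response curve was reduced to a drug sensitivity score computed by a previously described method.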

FIMM-PDC3 = patient-derived ovarian cancer cells; conditions: genetic perturbation: none (patient-derived cell culture)
Procedure, shortened: as §1

FIMM-PDC4 = patient-derived ovarian cancer cells; conditions: genetic perturbation: none (patient-derived cell culture)
Procedure, shortened: as §1

FIMM-PDC5 = patient-derived ovarian cancer cells; conditions: genetic perturbation: none (patient-derived cell culture)
Procedure, shortened: as §1

FIMM-PDC6 = patient-derived ovarian cancer cells; conditions: genetic perturbation: none (patient-derived cell culture)
Procedure, shortened: as §1

FIMM-PDC7 = patient-derived ovarian cancer cells; conditions: genetic perturbation: none (patient-derived cell culture)
Procedure, shortened: as §1

JHOS2 = test system: JHOS2
Procedure, shortened: as §1

Kuramochi = test system: Kuramochi
Procedure, shortened: as §1

OVSAHO = test system: OVSAHO
Procedure, shortened: as §1

[1] = genetic perturbation: DOX-induced PTK7 shRNA knockdown
[2] = genetic perturbation: DOX-induced control shRNA

## Cc1nc(=O)c2cc(CN(C)c3ccc(C(=O)N[C@@H](CCC(=O)O)C(=O)O)s3)ccc2[nH]1 [Raltitrexed]
FIMM-PDC1
  drug sensitivity score: 2.7
FIMM-PDC3
  drug sensitivity score: < 0
FIMM-PDC4
  drug sensitivity score: < 0
FIMM-PDC5
  drug sensitivity score: < 0
FIMM-PDC6
  drug sensitivity score: 1.2
FIMM-PDC7
  drug sensitivity score: 3
JHOS2; [1]
  drug sensitivity score: 0.1
JHOS2; [2]
  drug sensitivity score: < 0
Kuramochi; [1]
  drug sensitivity score: 0.45
Kuramochi; [2]
  drug sensitivity score: 9.4
OVSAHO; [1]
  drug sensitivity score: < 0
OVSAHO; [2]
  drug sensitivity score: 5.1

## Cn1nccc1Nc1nccc(-c2ccn([C@H](CO)c3ccc(Cl)c(F)c3)c(=O)c2)n1 [Ravoxertinib]
FIMM-PDC1
  drug sensitivity score: 1.2
FIMM-PDC3
  drug sensitivity score: 2.2
FIMM-PDC4
  drug sensitivity score: 7.9
FIMM-PDC5
  drug sensitivity score: 9.2
FIMM-PDC6
  drug sensitivity score: 6.6
FIMM-PDC7
  drug sensitivity score: 2.6
JHOS2; [1]
  drug sensitivity score: 1.5
JHOS2; [2]
  drug sensitivity score: 3.6
Kuramochi; [1]
  drug sensitivity score: 3.45
Kuramochi; [2]
  drug sensitivity score: < 0
OVSAHO; [1]
  drug sensitivity score: < 0
OVSAHO; [2]
  drug sensitivity score: 2.4

## CN(C)Cc1ccc(S(=O)(=O)n2ccc(/C=C/C(=O)NO)c2)cc1 [Resminostat]
FIMM-PDC1
  drug sensitivity score: 6.7
FIMM-PDC3
  drug sensitivity score: 8.7
FIMM-PDC4
  drug sensitivity score: 4.2
FIMM-PDC5
  drug sensitivity score: 10
FIMM-PDC6
  drug sensitivity score: 8.8
FIMM-PDC7
  drug sensitivity score: 7.2
JHOS2; [1]
  drug sensitivity score: 7.8
JHOS2; [2]
  drug sensitivity score: 7.1
Kuramochi; [1]
  drug sensitivity score: 9.8
Kuramochi; [2]
  drug sensitivity score: 4.8
OVSAHO; [1]
  drug sensitivity score: 9.3
OVSAHO; [2]
  drug sensitivity score: 6.9

## CO[C@H]1C[C@@H]2CC[C@@H](C)[C@@](O)(O2)C(=O)C(=O)N2CCCC[C@H]2C(=O)O[C@H]([C@H](C)C[C@@H]2CC[C@@H](OP(C)(C)=O)[C@H](OC)C2)CC(=O)[C@H](C)/C=C(\C)[C@@H](O)[C@@H](OC)C(=O)[C@H](C)C[C@H](C)/C=C/C=C/C=C/1C [Ridaforolimus]
FIMM-PDC1
  drug sensitivity score: 1.65
FIMM-PDC3
  drug sensitivity score: 4.5
FIMM-PDC4
  drug sensitivity score: 5
FIMM-PDC5
  drug sensitivity score: 9.5
FIMM-PDC6
  drug sensitivity score: 3.2
FIMM-PDC7
  drug sensitivity score: 11.4
JHOS2; [1]
  drug sensitivity score: < 0
JHOS2; [2]
  drug sensitivity score: 4.1
Kuramochi; [1]
  drug sensitivity score: 2.5
Kuramochi; [2]
  drug sensitivity score: 0.7
OVSAHO; [1]
  drug sensitivity score: 0.4
OVSAHO; [2]
  drug sensitivity score: 5.3

## COc1cc(OC)c(/C=C/S(=O)(=O)Cc2ccc(OC)c(NCC(=O)O)c2)c(OC)c1 [Rigosertib]
FIMM-PDC1
  drug sensitivity score: 13.2
FIMM-PDC3
  drug sensitivity score: 19
FIMM-PDC4
  drug sensitivity score: 23.6
FIMM-PDC5
  drug sensitivity score: 20
FIMM-PDC6
  drug sensitivity score: 15.1
FIMM-PDC7
  drug sensitivity score: 10.6
JHOS2; [1]
  drug sensitivity score: 18.3
JHOS2; [2]
  drug sensitivity score: 13
Kuramochi; [1]
  drug sensitivity score: 17.9
Kuramochi; [2]
  drug sensitivity score: 6.4
OVSAHO; [1]
  drug sensitivity score: 19.1
OVSAHO; [2]
  drug sensitivity score: 9.2

## C=CC(=O)Nc1cccc(Nc2nc(Nc3ccc(N4CCN(C(C)=O)CC4)cc3OC)ncc2C(F)(F)F)c1 [Rociletinib]
FIMM-PDC1
  drug sensitivity score: 5.2
FIMM-PDC3
  drug sensitivity score: 7.6
FIMM-PDC4
  drug sensitivity score: 10
FIMM-PDC5
  drug sensitivity score: 10.3
FIMM-PDC6
  drug sensitivity score: 10.3
FIMM-PDC7
  drug sensitivity score: 10.7
JHOS2; [1]
  drug sensitivity score: 3.6
JHOS2; [2]
  drug sensitivity score: 2.1
Kuramochi; [1]
  drug sensitivity score: 4.75
Kuramochi; [2]
  drug sensitivity score: 4.6
OVSAHO; [1]
  drug sensitivity score: 9.1
OVSAHO; [2]
  drug sensitivity score: 5.1

## C/C=C1\NC(=O)[C@H]2CSSCC/C=C/[C@H](CC(=O)N[C@H](C(C)C)C(=O)N2)OC(=O)[C@H](C(C)C)NC1=O [Romidepsin]
FIMM-PDC1
  drug sensitivity score: 26.2
FIMM-PDC3
  drug sensitivity score: 29.6
FIMM-PDC4
  drug sensitivity score: 25.6
FIMM-PDC5
  drug sensitivity score: 26.9
FIMM-PDC6
  drug sensitivity score: 31.1
FIMM-PDC7
  drug sensitivity score: 27.2
JHOS2; [1]
  drug sensitivity score: 24.3
JHOS2; [2]
  drug sensitivity score: 24.1
Kuramochi; [1]
  drug sensitivity score: 30.7
Kuramochi; [2]
  drug sensitivity score: 21.6
OVSAHO; [1]
  drug sensitivity score: 28.1
OVSAHO; [2]
  drug sensitivity score: 25.4

## CN(C)C[C@@H]1CCn2cc(c3ccccc32)C2=C(C(=O)NC2=O)c2cn(c3ccccc23)CCO1 [Ruboxistaurin]
FIMM-PDC1
  drug sensitivity score: 6.85
FIMM-PDC3
  drug sensitivity score: 8.5
FIMM-PDC4
  drug sensitivity score: 7.8
FIMM-PDC5
  drug sensitivity score: 11.1
FIMM-PDC6
  drug sensitivity score: 6.8
FIMM-PDC7
  drug sensitivity score: 8.1
JHOS2; [1]
  drug sensitivity score: 6.2
JHOS2; [2]
  drug sensitivity score: 6.5
Kuramochi; [1]
  drug sensitivity score: 7.25
Kuramochi; [2]
  drug sensitivity score: 7
OVSAHO; [1]
  drug sensitivity score: 9.8
OVSAHO; [2]
  drug sensitivity score: 6

## CN1CCC(CNc2ccc3ncc(-c4cccc(OC(F)(F)F)c4)n3n2)CC1 [SGI-1776]
FIMM-PDC1
  drug sensitivity score: 5.6
FIMM-PDC3
  drug sensitivity score: 6
FIMM-PDC4
  drug sensitivity score: 6.8
FIMM-PDC5
  drug sensitivity score: 6.9
FIMM-PDC6
  drug sensitivity score: 6.8
FIMM-PDC7
  drug sensitivity score: 9.1
JHOS2; [1]
  drug sensitivity score: 6.2
JHOS2; [2]
  drug sensitivity score: 5.9
Kuramochi; [1]
  drug sensitivity score: 5.3
Kuramochi; [2]
  drug sensitivity score: 5.7
OVSAHO; [1]
  drug sensitivity score: 7.9
OVSAHO; [2]
  drug sensitivity score: 7.2

## CN(CC(=O)N(Cc1ccc(C2CCCCC2)cc1)c1ccc(C(=O)O)cc1)S(=O)(=O)c1c(F)c(F)c(F)c(F)c1F [SH-4-54]
FIMM-PDC1
  drug sensitivity score: 4
FIMM-PDC3
  drug sensitivity score: 6
FIMM-PDC4
  drug sensitivity score: 7
FIMM-PDC5
  drug sensitivity score: 5.1
FIMM-PDC6
  drug sensitivity score: 7.6
FIMM-PDC7
  drug sensitivity score: 9.2
JHOS2; [1]
  drug sensitivity score: 4.6
JHOS2; [2]
  drug sensitivity score: 3.7
Kuramochi; [1]
  drug sensitivity score: 6.1
Kuramochi; [2]
  drug sensitivity score: 4.7
OVSAHO; [1]
  drug sensitivity score: 5.2
OVSAHO; [2]
  drug sensitivity score: 5.4

## CCc1c2c(nc3ccc(O)cc13)-c1cc3c(c(=O)n1C2)COC(=O)[C@]3(O)CC [SN-38]
FIMM-PDC1
  drug sensitivity score: 23.5
FIMM-PDC3
  drug sensitivity score: 26.6
FIMM-PDC4
  drug sensitivity score: 19.2
FIMM-PDC5
  drug sensitivity score: 29.7
FIMM-PDC6
  drug sensitivity score: 28.9
FIMM-PDC7
  drug sensitivity score: 21.3
JHOS2; [1]
  drug sensitivity score: 26.1
JHOS2; [2]
  drug sensitivity score: 22.5
Kuramochi; [1]
  drug sensitivity score: 21
Kuramochi; [2]
  drug sensitivity score: 8.6
OVSAHO; [1]
  drug sensitivity score: 21
OVSAHO; [2]
  drug sensitivity score: 16.4

## CC(C)(C)c1cnc(CSc2cnc(NC(=O)C3CCNCC3)s2)o1 [SNS-032]
FIMM-PDC1
  drug sensitivity score: 18.6
FIMM-PDC3
  drug sensitivity score: 16.9
FIMM-PDC4
  drug sensitivity score: 20
FIMM-PDC5
  drug sensitivity score: 24.7
FIMM-PDC6
  drug sensitivity score: 19.2
FIMM-PDC7
  drug sensitivity score: 19.1
JHOS2; [1]
  drug sensitivity score: 19.9
JHOS2; [2]
  drug sensitivity score: 16.9
Kuramochi; [1]
  drug sensitivity score: 16.9
Kuramochi; [2]
  drug sensitivity score: 17.2
OVSAHO; [1]
  drug sensitivity score: 17.5
OVSAHO; [2]
  drug sensitivity score: 15.9

## Cc1cc2c(C(=O)NC[C@H](C)c3ccccc3)c(O)c(O)cc2c(O)c1-c1c(C)cc2c(C(=O)NC[C@H](C)c3ccccc3)c(O)c(O)cc2c1O [Sabutoclax]
FIMM-PDC1
  drug sensitivity score: 4.75
FIMM-PDC3
  drug sensitivity score: 11.8
FIMM-PDC4
  drug sensitivity score: 6.9
FIMM-PDC5
  drug sensitivity score: 5.2
FIMM-PDC6
  drug sensitivity score: 6.4
FIMM-PDC7
  drug sensitivity score: 3.8
JHOS2; [1]
  drug sensitivity score: 11.1
JHOS2; [2]
  drug sensitivity score: 10.8
Kuramochi; [1]
  drug sensitivity score: 7.8
Kuramochi; [2]
  drug sensitivity score: 6.8
OVSAHO; [1]
  drug sensitivity score: 4.7
OVSAHO; [2]
  drug sensitivity score: 6.5

## CC[C@@H](C(=O)[C@@H](C)[C@@H](O)[C@H](C)[C@@H]1O[C@@H]([C@@H](CC)C(=O)O)CC[C@@H]1C)[C@H]1O[C@]2(C=C[C@@H](O)[C@]3(CC[C@@](C)([C@H]4CC[C@](O)(CC)[C@H](C)O4)O3)O2)[C@H](C)C[C@@H]1C [Salinomycin]
FIMM-PDC1
  drug sensitivity score: 11.6
FIMM-PDC3
  drug sensitivity score: 18.8
FIMM-PDC4
  drug sensitivity score: 16.8
FIMM-PDC5
  drug sensitivity score: 18.4
FIMM-PDC6
  drug sensitivity score: 8.1
FIMM-PDC7
  drug sensitivity score: 14.7
JHOS2; [1]
  drug sensitivity score: 24.2
JHOS2; [2]
  drug sensitivity score: 15.5
Kuramochi; [1]
  drug sensitivity score: 19.4
Kuramochi; [2]
  drug sensitivity score: 21.6
OVSAHO; [1]
  drug sensitivity score: 29.2
OVSAHO; [2]
  drug sensitivity score: 4.8

## CC(C)n1nc(-c2ccc3oc(N)nc3c2)c2c(N)ncnc21 [Sapanisertib]
FIMM-PDC1
  drug sensitivity score: 7.5
FIMM-PDC3
  drug sensitivity score: 7.6
FIMM-PDC4
  drug sensitivity score: 15.4
FIMM-PDC5
  drug sensitivity score: 21.2
FIMM-PDC6
  drug sensitivity score: 16.3
FIMM-PDC7
  drug sensitivity score: 16.3
JHOS2; [1]
  drug sensitivity score: 6.9
JHOS2; [2]
  drug sensitivity score: 9.3
Kuramochi; [1]
  drug sensitivity score: 10.1
Kuramochi; [2]
  drug sensitivity score: 10.7
OVSAHO; [1]
  drug sensitivity score: 14
OVSAHO; [2]
  drug sensitivity score: 11.6

## CNC(=O)CN1CCC(Oc2cc3c(Nc4cccc(Cl)c4F)ncnc3cc2OC)CC1 [Sapitinib]
FIMM-PDC1
  drug sensitivity score: 0.6
FIMM-PDC3
  drug sensitivity score: 8.8
FIMM-PDC4
  drug sensitivity score: 16.3
FIMM-PDC5
  drug sensitivity score: 16.5
FIMM-PDC6
  drug sensitivity score: 11.4
FIMM-PDC7
  drug sensitivity score: 10.1
JHOS2; [1]
  drug sensitivity score: < 0
JHOS2; [2]
  drug sensitivity score: < 0
Kuramochi; [1]
  drug sensitivity score: 0.5
Kuramochi; [2]
  drug sensitivity score: < 0
OVSAHO; [1]
  drug sensitivity score: < 0
OVSAHO; [2]
  drug sensitivity score: < 0
